In PubChem BioAssay (NCI):
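Values below derive from 48-hour exposures of cells grown in 96-well plates, with endpoints linearly interpolated between the two concentrations bracketing the appropriate inhibition level. Here, GI50 denotes the concentration required for 50% inhibition of growth. The concentration for full growth arrest is given as TGI.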

Assays:
Assay in all cases: growth of human tumour cells (NCI), 48 h
[1] = system: HCT-116 colon
[2] = system: HCT-15 colon
[3] = system: HS 578T breast
[4] = system: A498 renal
[5] = system: 786-0 renal
[6] = system: HL-60(TB) leukemia
[7] = system: MDA-MB-435
[8] = system: MDA-N
[9] = system: EKVX NSCLC
[10] = system: MALME-3M melanoma
[11] = system: KM12 colon

Row | Structure (SMILES) | TGI [1] | TGI [2] | TGI [3] | TGI [4] | TGI [5] | TGI [6] | TGI [7] | TGI [8] | TGI [9] | TGI [10] | GI50 [1] | TGI [11]
1 | O=C1c2cc3c(cc2CC12Cc1ccc4c(c1C2=O)CCC4)CCC3 (stereo not drawn) | > 100 µM | > 100 µM | > 100 µM | > 100 µM | > 100 µM | > 100 µM | > 100 µM | > 100 µM | > 100 µM | > 100 µM |  | 
2 | COC1(CC[C@H](C)COC2OC(CO)C(O)C(O)C2O)O[C@H]2C[C@H]3[C@@H]4CC=C5C[C@@H](OC6OC(CO)C(OC7OC(C)C(O)C(O)C7O)C(O)C6OC6OC(C)C(O)C(O)C6O)CC[C@]5(C)[C@H]4CC[C@]3(C)[C@H]2[C@@H]1C (stereo partly drawn) | 8.34 µM | 7.47 µM | 6.72 µM | 64.5 µM | 5.57 µM | 46.6 µM | 5.3 µM | 9.57 µM | 98.8 µM | 9.15 µM | 2.92 µM | 6.65 µM
3 | COc1ccc2c(c1OC)C(=O)N1C2=Cc2c(cc3c(c2OC)OCO3)CC1N(C)C (stereo not drawn) | > 100 µM | > 100 µM | > 100 µM | > 100 µM | > 100 µM | 80.1 µM | > 100 µM | > 100 µM | > 100 µM | > 100 µM |  | > 100 µM
4 | Cc1c(C(=O)NNc2ccccc2)n2c(=S)[nH]nc2c2ccccc12 | > 100 µM | > 100 µM | > 100 µM | > 100 µM | > 100 µM | > 100 µM | > 100 µM | > 100 µM | > 100 µM |  |  | > 100 µM
5 | CSc1nc(=O)c2nc(-c3cccs3)c(-c3cccs3)nc2n1C | > 100 µM | > 100 µM | > 100 µM | > 100 µM | > 100 µM | > 100 µM | > 100 µM | > 100 µM | > 100 µM | > 100 µM |  | > 100 µM
6 | CC1=C(C)SC(=C2Sc3c(n(C)c(=O)n(C)c3=O)S2)S1 | 27.5 µM | > 100 µM | > 100 µM | 79.4 µM | 34.8 µM | > 100 µM | > 100 µM | > 100 µM | > 100 µM | > 100 µM |  | > 100 µM
7 | Nc1c(N2CCOCC2)c(=O)nc2[nH]/c(=C\c3ccccc3O)c(=O)n12 | > 100 µM | > 100 µM | > 100 µM | > 100 µM | > 100 µM | > 100 µM | > 100 µM | > 100 µM | > 100 µM | > 100 µM |  | > 100 µM
8 | O=C(c1ccc([N+](=O)[O-])cc1)N1CCCC1 | > 100 µM | > 100 µM | > 100 µM | > 100 µM | > 100 µM | > 100 µM | > 100 µM | > 100 µM | > 100 µM | > 100 µM |  | > 100 µM
9 | CO[P@@]1(=O)O[C@@H](c2ccccc2)[C@H](O)[C@]1(O)c1ccccc1 | > 100 µM | > 100 µM | > 100 µM | > 100 µM | > 100 µM | > 100 µM | > 100 µM | > 100 µM | 60.4 µM | > 100 µM |  | > 100 µM
10 | CCOC(=O)N1CCN(c2c(N)nc(C)[nH]c2=O)CC1 | > 100 µM | > 100 µM | > 100 µM | > 100 µM | > 100 µM | > 100 µM | > 100 µM | > 100 µM | > 100 µM | > 100 µM |  | > 100 µM
11 | CCc1nc2c(c(N(C)C)c1C(=O)OC)CCc1ccccc1-2 | > 100 µM | > 100 µM | > 100 µM | 75.3 µM | > 100 µM | 9.43 µM | 65.6 µM | 81.5 µM | > 100 µM | > 100 µM |  | > 100 µM
12 | CNC(=S)N1CCN(C(C)=O)C1=S | > 100 µM | > 100 µM | 87.5 µM | > 100 µM | > 100 µM | > 100 µM | > 100 µM | > 100 µM | 91.9 µM | 43.2 µM |  | > 100 µM
13 | CC1(C)C=C(/C=C2/N(S(=O)(=O)C(F)(F)F)C(/C=C3/N(S(=O)(=O)C(F)(F)F)C(C)(C#N)CC3(C)C)=CC2(C)C)N=C1/C=C1/CC(C)(C)C(=O)N1 (stereo not drawn) | 42.8 µM | 73.6 µM | 57.7 µM | > 100 µM | > 100 µM | 21.2 µM | > 100 µM | > 100 µM | 81.2 µM |  |  | > 100 µM
14 | COc1ccc(-c2cc3cc(Cl)cc(Cl)c3oc2=O)cc1OC | > 100 µM | > 100 µM | 76.1 µM | > 100 µM | > 100 µM | > 100 µM | > 100 µM | > 100 µM | > 100 µM | > 100 µM |  | > 100 µM
15 | CCN(CC)C(=S)N/N=C(/c1ccccc1)c1ccccn1 | 13.6 µM | > 36.9 µM | > 100 µM | 2.38 µM | 1.19 µM | 1.59 µM | > 47.3 µM | 26.1 µM | > 56.7 µM | > 47.1 µM |  | 19.6 µM
16 | O=C([C@H](O)[C@@H](O)c1cccc(Cl)c1)C12CC3CC(CC(C3)C1)C2 | 6.79 µM | 6.62 µM | 6.48 µM | 5.46 µM | 3.3 µM | 3.79 µM | 8.46 µM | 5.92 µM | 4.38 µM | 18.2 µM |  | 6.01 µM
17 | CCn1ncc2c(=O)n3ncn(-c4ccc(Br)cc4)c3nc21 | > 100 µM | > 100 µM | > 100 µM | > 100 µM | > 100 µM | > 100 µM | > 100 µM | > 100 µM | > 100 µM | > 100 µM |  | > 100 µM
18 | Cc1cc(-c2cc(C(C)(C)C)c(O)c(C(C)(C)C)c2)c(C)cc1-c1cc(C(C)(C)C)c(O)c(C(C)(C)C)c1 | > 100 µM | > 100 µM | > 100 µM | 92.7 µM | > 100 µM | > 100 µM | 32.7 µM | > 100 µM | > 100 µM | > 100 µM |  | > 100 µM
19 | CC/C=N\N1C(N)=C(C#N)C(C#N)(C#N)C1CC (stereo not drawn) | > 100 µM | > 100 µM | > 100 µM | > 100 µM | > 100 µM | 85.6 µM | > 100 µM | > 100 µM | > 100 µM | > 100 µM |  | > 100 µM
20 | Cc1ccc(C)c(COCCOCn2cc(N3CCOCC3)c(=O)[nH]c2=O)c1 | > 100 µM | > 100 µM | > 100 µM | > 100 µM | > 100 µM | > 100 µM | > 100 µM | > 100 µM | > 100 µM | > 100 µM |  | > 100 µM
21 | CC1=C(C(=O)OCCO[N+](=O)[O-])C(c2ccccc2[N+](=O)[O-])C(C(=O)OC(C)C)=C(C)N1 (stereo not drawn) | 29.8 µM | 30.9 µM | 41.2 µM | 46.2 µM | 41.4 µM | > 100 µM | 28.5 µM | 31.1 µM | 53 µM | 35.9 µM |  | 28.1 µM
22 | CC1(C)OCC(C2OC(C)(C)OC2[C@H]2O[C@@]3(O)[C@H]4[C@H](C=CC[C@@H]42)[C@@H](OCc2ccccc2)[C@H](OCc2ccccc2)[C@H]3OCc2ccccc2)O1 (stereo partly drawn) | > 100 µM | > 100 µM | > 100 µM | > 100 µM | > 100 µM | 42.4 µM | > 100 µM | 44.8 µM | > 100 µM | > 100 µM |  | > 100 µM
23 | CC1=NN2C(=N)/C(=C/c3ccc(F)cc3)C(=O)N=C2S1 | > 100 µM | > 100 µM | > 100 µM | > 100 µM | > 100 µM | > 100 µM | > 100 µM | > 100 µM | > 100 µM | > 100 µM |  | > 100 µM
24 | O=C1C=CC(=O)c2c(O)c(N3CCC[C@@H]3CO)c(Cl)c(O)c21 | 2.91 µM | 3.35 µM | 4.03 µM | 6.96 µM | 3.17 µM | 0.734 µM | 3.78 µM | 3.15 µM | 3.55 µM | 3.07 µM |  | 3.16 µM
25 | CC(=O)Oc1ccn2nc(C)c(Br)c2c1 | > 100 µM | > 100 µM | > 100 µM | > 100 µM | > 100 µM | > 86.5 µM | > 61.8 µM | > 100 µM | > 100 µM | > 100 µM |  | > 100 µM
26 | CSc1ccc(/C=C2\N=C(c3ccccc3)N(c3nc4cc(Cl)c(F)cc4s3)C2=O)cc1 | > 100 µM | > 100 µM | 97.3 µM | > 100 µM | > 100 µM | > 100 µM | > 100 µM | > 100 µM | > 100 µM |  |  | > 100 µM
27 | CC(C)=CCC[C@@H](C)C1=C(Nc2ccccc2F)C(O)=C(C)C(=O)C1=O | > 35.7 µM | > 70.6 µM | 57.1 µM | > 43.9 µM | > 100 µM |  | > 100 µM | > 100 µM | > 100 µM | 29.5 µM |  | 19.4 µM
28 | Cn1c(=O)cc(NNc2ccc(Cl)c(Cl)c2)[nH]c1=O | 20.5 µM | 18.5 µM | 56 µM | > 100 µM | 25.9 µM | 91 µM | 14.1 µM | 23.3 µM | 24.2 µM |  |  | 30.2 µM
29 | CSc1ncc2c(n1)-c1ccccc1OC2NC1CC1 (stereo not drawn) | > 100 µM | > 100 µM | > 100 µM | 28 µM | > 100 µM | 73.3 µM | > 100 µM | > 100 µM | > 100 µM |  |  | > 100 µM
